ChEMBL document CHEMBL6103571, “Design, synthesis, and evaluation of carboxylic acid-substituted celecoxib isosteres as potential anti-inflammatory agents” (Eur J Med Chem, 2025)
Each block holds one molecule with its values, some of them ahead of it. The source made the active and inactive calls. The rule behind the calls is not given here.

Assays:
[1] = Cytotoxicity against mouse RAW264.7 cells incubated for 24 hrs by MTT assay; type: toxicity, cell-based
[2] = system: RAW264.7; experiment: Anti-inflammatory activity against LPS-induced mouse RAW264.7 cells assessed as inhibition of NO production at 20 uM preincubated for 1 hrs followed by LPS addition and measured after 24 hrs by Griess reagent-based microplate reader analysis relative to control; type: functional; conditions: time 25 hrs
[3] = Toxicity in male Sprague-Dawley rat assessed as average number of ulcers at 100 mg/kg, po administrated for 3 days and measured after 2 hrs post last dose; type: organism-based; conditions: in vivo, 74 h
[4] = Toxicity in male Sprague-Dawley rat assessed as ulcer score at 100 mg/kg, po administrated for 3 days and measured after 2 hrs post last dose; type: organism-based; conditions: in vivo, 74 h
[5] = Toxicity in Sprague-Dawley rat assessed as ulcer index at 100 mg/kg, po administrated for 3 days and measured after 2 hrs post last dose; type: organism-based; conditions: in vivo, 74 h
[6] = system: Mus musculus; experiment: Anti-inflammatory activity in TPA-induced male Kunming mouse model of ear edema assessed as reduction in ear erythema at 1.0 mg, TOP pre-administered via ear for 30 mins followed by TPA addition and measured after 6 hrs; type: functional, organism-based; conditions: time 6.5 hrs
[7] = system: Mus musculus; experiment: Anti-inflammatory activity in TPA-induced male Kunming mouse model of ear edema assessed as reduction in ear thickness at 1.0 mg, TOP pre-administered via ear for 30 mins followed by TPA addition and measured after 6 hrs; type: functional, organism-based; conditions: time 6.5 hrs
[8] = system: Mus musculus; experiment: Anti-inflammatory activity in TPA-induced male Kunming mouse model of ear edema assessed as reduction in ear weight at 1.0 mg, TOP pre-administered via ear for 30 mins followed by TPA addition and measured after 6 hrs; type: functional, organism-based; conditions: time 6.5 hrs
[9] = Toxicity in Sprague-Dawley rat assessed as average number of ulcers at 50 mg/kg, po administrated for 3 days and measured after 2 hrs; type: organism-based; conditions: in vivo, 74 h
[10] = Toxicity in Sprague-Dawley rat assessed as ulcer score at 50 mg/kg, po administrated for 3 days and measured after 2 hrs; type: organism-based; conditions: in vivo, 74 h
[11] = Toxicity in Sprague-Dawley rat assessed as ulcer index at 50 mg/kg, po administrated for 3 days and measured after 2 hrs; type: organism-based; conditions: in vivo, 74 h
[12] = target: T1, Prostaglandin G/H synthase 1 (Ovis aries, UniProt P05979); experiment: Inhibition of ovine COX-1 using arachidonic acid as substrate preincubated for 10 mins followed by substrate addition and measured after 2 mins by ELISA
T1 sequence (P05979 whole entry): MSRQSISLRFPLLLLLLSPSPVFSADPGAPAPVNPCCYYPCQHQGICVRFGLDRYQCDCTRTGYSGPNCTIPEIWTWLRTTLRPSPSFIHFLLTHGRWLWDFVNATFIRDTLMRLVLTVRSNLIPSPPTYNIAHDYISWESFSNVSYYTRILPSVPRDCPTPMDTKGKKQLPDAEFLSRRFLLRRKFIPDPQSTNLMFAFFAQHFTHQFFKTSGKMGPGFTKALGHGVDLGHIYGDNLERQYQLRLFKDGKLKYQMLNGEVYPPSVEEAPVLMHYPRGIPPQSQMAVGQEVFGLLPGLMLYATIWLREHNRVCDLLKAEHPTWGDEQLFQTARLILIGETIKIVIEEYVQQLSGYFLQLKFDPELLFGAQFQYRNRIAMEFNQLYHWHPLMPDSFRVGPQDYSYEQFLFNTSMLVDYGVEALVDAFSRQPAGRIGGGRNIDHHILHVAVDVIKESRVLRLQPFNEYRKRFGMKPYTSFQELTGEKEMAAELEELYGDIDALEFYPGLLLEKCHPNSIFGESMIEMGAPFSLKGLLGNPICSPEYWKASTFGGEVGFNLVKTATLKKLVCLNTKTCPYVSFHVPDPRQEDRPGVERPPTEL

[13] = target: T2, Prostaglandin G/H synthase 2 (Homo sapiens, UniProt P35354); experiment: Inhibition of recombinant human COX-2 using arachidonic acid as substrate preincubated for 10 mins followed by substrate addition and measured after 2 mins by ELISA
T2 sequence (P35354 whole entry): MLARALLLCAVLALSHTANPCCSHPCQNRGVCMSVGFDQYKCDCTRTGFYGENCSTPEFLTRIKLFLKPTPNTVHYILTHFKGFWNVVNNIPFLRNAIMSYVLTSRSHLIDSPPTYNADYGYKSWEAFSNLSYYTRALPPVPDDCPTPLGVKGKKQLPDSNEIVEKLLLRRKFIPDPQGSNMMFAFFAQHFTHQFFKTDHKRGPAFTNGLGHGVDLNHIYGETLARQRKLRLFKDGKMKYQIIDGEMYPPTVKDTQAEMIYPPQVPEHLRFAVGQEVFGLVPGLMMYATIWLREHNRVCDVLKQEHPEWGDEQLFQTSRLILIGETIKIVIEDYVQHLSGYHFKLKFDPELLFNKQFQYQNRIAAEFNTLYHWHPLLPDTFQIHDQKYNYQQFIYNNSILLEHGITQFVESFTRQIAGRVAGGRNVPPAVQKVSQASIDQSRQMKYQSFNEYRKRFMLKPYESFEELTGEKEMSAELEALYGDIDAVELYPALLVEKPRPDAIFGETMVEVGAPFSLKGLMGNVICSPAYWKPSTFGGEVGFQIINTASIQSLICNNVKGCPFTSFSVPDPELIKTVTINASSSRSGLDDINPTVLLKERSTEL

[14] = Selectivity index, ratio of IC50 for ovine COX-1 to IC50 for human COX-2
[15] = system: RAW264.7; experiment: Anti-inflammatory activity in LPS-induced mouse RAW264.7 cells assessed as downregulation of COX-2 expression at 12.5 to 50 uM preincubated for 1 hrs followed by LPS addition for 24 hrs by Western blotting analysis; type: functional, cell-based; conditions: dose 12.5-50 µM, time 25.0 hrs
[16] = system: RAW264.7; experiment: Anti-inflammatory activity in LPS-induced mouse RAW264.7 cells assessed as reduction in PGE2 production preincubated for 1 hrs followed by LPS addition for 24 hrs by ELISA; type: functional, cell-based; conditions: dose 12.5-50 µM, time 25.0 hrs
[17] = system: Mus musculus; experiment: Anti-inflammatory activity in TPA-induced male Kunming mouse model of ear edema assessed as reduction in ear erythema pre-administered topically via ear for 30 mins followed by TPA addition and measured after 6 hrs; type: functional, organism-based; conditions: dose 0.5-1 mg, route top, time 6.5 hrs
[18] = system: Mus musculus; experiment: Anti-inflammatory activity in TPA-induced male Kunming mouse model of ear edema assessed as reduction in ear thickness at 0.5 to 1.0 mg, TOP pre-administered via ear for 30 mins followed by TPA addition and measured after 6 hrs; type: functional, organism-based; conditions: dose 0.5-1 mg, time 6.5 hrs
[19] = system: Mus musculus; experiment: Anti-inflammatory activity in TPA-induced male Kunming mouse model of ear edema assessed as reduction in ear weight at 0.5 to 1.0 mg, TOP pre-administered via ear for 30 mins followed by TPA addition and measured after 6 hrs; type: functional, organism-based; conditions: dose 0.5-1 mg, time 6.5 hrs
[20] = system: Mus musculus; experiment: Anti-inflammatory activity against TPA-induced Kunming mouse ear edema model assessed as downregulation of COX-2 level in ear homogenate pre-administered topically via ear for 30 mins followed by TPA addition and measured after 6 hrs by Western blot analysis; type: functional, organism-based; conditions: dose 0.5-1 mg, route top, time 6.5 hrs
[21] = system: Mus musculus; experiment: Anti-inflammatory activity against TPA-induced Kunming mouse ear edema model assessed as inhibition of PGE2 production in ear homogenate pre-administered topically via ear for 30 mins followed by TPA addition and measured after 6 hrs by ELISA; type: functional, organism-based; conditions: dose 0.5-1 mg, route top, time 6.5 hrs

Structure (SMILES): NS(=O)(=O)c1ccc(-c2nnc(SCC(=O)O)n2-c2ccc(F)cc2)cc1
- IC50 at 24 h [1]: > 100 µM
- inhibition at 20 µM [2]: 15.4%

Structure (SMILES): COc1ccc(-n2c(SCC(=O)O)nnc2-c2ccc(S(N)(=O)=O)cc2)cc1
- IC50 at 24 h [1]: > 100 µM
- inhibition at 20 µM [2]: 18.7%

Structure (SMILES): COc1ccccc1-n1c(SCC(=O)O)nnc1-c1ccc(S(N)(=O)=O)cc1
- IC50 at 24 h [1]: > 100 µM
- inhibition at 20 µM [2]: 12.9%

Structure (SMILES): Cc1ccc(-n2c(SCC(=O)O)nnc2-c2ccc(S(N)(=O)=O)cc2)cc1
- IC50 at 24 h [1]: 74.6 µM
- inhibition at 20 µM [2]: 22.3%

Structure (SMILES): Cc1ccc(-c2cc(C(F)(F)F)nn2-c2ccc(S(N)(=O)=O)cc2)cc1 [CELECOXIB]
- inhibition at 20 µM [2]: 38.1%
- Activity [3]: 0.8
- Activity [4]: 1.5
- UI [5]: 6.3
- Activity [6]: Active
- Activity [7]: Active
- Activity [8]: Active

Structure (SMILES): NS(=O)(=O)c1ccc(-c2nnc(SCC(=O)O)n2-c2ccccc2[N+](=O)[O-])cc1
- IC50 at 24 h [1]: > 100 µM
- inhibition at 20 µM [2]: 13.8%

Structure (SMILES): COc1ccc2c(c1)c(CC(=O)O)c(C)n2C(=O)c1ccc(Cl)cc1 [INDOMETHACIN]
- Activity [9]: 3.18
- Activity [10]: 15.6
- UI [11]: 28.78

Structure (SMILES): NS(=O)(=O)c1ccc(-c2nnc(SCC(=O)O)n2-c2cccc(Cl)c2)cc1
- IC50 at 24 h [1]: > 100 µM
- inhibition at 20 µM [2]: 19.1%

Structure (SMILES): NS(=O)(=O)c1ccc(-c2nnc(SCC(=O)O)n2-c2cccc(I)c2)cc1
- IC50 at 24 h [1]: > 100 µM
- inhibition at 20 µM [2]: 22.5%

Structure (SMILES): NS(=O)(=O)c1ccc(-c2nnc(SCC(=O)O)n2-c2cccc([N+](=O)[O-])c2)cc1
- IC50 at 24 h [1]: > 100 µM
- inhibition at 20 µM [2]: 13.2%

Structure (SMILES): Cc1ccccc1-n1c(SCC(=O)O)nnc1-c1ccc(S(N)(=O)=O)cc1
- IC50 at 24 h [1]: > 100 µM
- inhibition at 20 µM [2]: 18.8%

Structure (SMILES): Cc1cccc(-n2c(SCC(=O)O)nnc2-c2ccc(S(N)(=O)=O)cc2)c1
- IC50 at 24 h [1]: 76.6 µM
- inhibition at 20 µM [2]: 17.7%

Structure (SMILES): NS(=O)(=O)c1ccc(-c2nnc(SCC(=O)O)n2-c2ccc(C(F)(F)F)cc2)cc1
- IC50 at 24 h [1]: 62.2 µM
- inhibition at 20 µM [2]: 22.6%

Structure (SMILES): NS(=O)(=O)c1ccc(-c2nnc(SCC(=O)O)n2-c2cccc(Br)c2)cc1
- IC50 at 24 h [1]: > 100 µM
- inhibition at 20 µM [2]: 14.1%

Structure (SMILES): NS(=O)(=O)c1ccc(-c2nnc(SCC(=O)O)n2-c2ccc([N+](=O)[O-])cc2)cc1
- IC50 at 24 h [1]: > 100 µM
- inhibition at 20 µM [2]: 23.9%

Structure (SMILES): NS(=O)(=O)c1ccc(-c2nnc(SCC(=O)O)n2-c2ccc(Cl)cc2)cc1
- IC50 at 24 h [1]: > 100 µM
- inhibition at 20 µM [2]: 22.4%

Structure (SMILES): NS(=O)(=O)c1ccc(-c2nnc(SCC(=O)O)n2-c2cccc(F)c2)cc1
- IC50 at 24 h [1]: > 100 µM
- inhibition at 20 µM [2]: 15.1%

Structure (SMILES): NS(=O)(=O)c1ccc(-c2nnc(SCC(=O)O)n2-c2cccc(C(F)(F)F)c2)cc1
- IC50 at 24 h [1]: > 100 µM
- inhibition at 20 µM [2]: 21.1%

Structure (SMILES): NS(=O)(=O)c1ccc(-c2nnc(SCC(=O)O)n2-c2ccccc2Cl)cc1
- IC50 at 24 h [1]: > 100 µM
- inhibition at 20 µM [2]: 20.9%

- IC50 [12]: 16 µM
- IC50 [13]: 0.054 µM
- Ratio IC50 [14]: 296
Structure (SMILES): NS(=O)(=O)c1ccc(-c2nnc(SCC(=O)O)n2-c2ccc(I)cc2)cc1
- IC50 at 24 h [1]: > 100 µM
- inhibition at 20 µM [2]: 30.8%
- Activity [15]: Active
- Activity [16]: Dose-dependent-effect
- Activity [17]: Dose-dependent-effect
- Activity [18]: Active
- Activity [19]: Active
- Activity [20]: Dose-dependent-effect
- Activity [21]: Dose-dependent-effect
- Activity [3]: 0.6
- Activity [4]: 0.6
- UI [5]: 5.2

Structure (SMILES): NS(=O)(=O)c1ccc(-c2nnc(SCC(=O)O)n2-c2ccccc2F)cc1
- IC50 at 24 h [1]: > 100 µM
- inhibition at 20 µM [2]: 13.6%

Structure (SMILES): NS(=O)(=O)c1ccc(-c2nnc(SCC(=O)O)n2-c2ccc(Br)cc2)cc1
- IC50 at 24 h [1]: > 100 µM
- inhibition at 20 µM [2]: 21%

Structure (SMILES): NS(=O)(=O)c1ccc(-c2nnc(SCC(=O)O)n2-c2ccccc2I)cc1
- IC50 at 24 h [1]: > 100 µM
- inhibition at 20 µM [2]: 17.9%

Structure (SMILES): COc1cccc(-n2c(SCC(=O)O)nnc2-c2ccc(S(N)(=O)=O)cc2)c1
- IC50 at 24 h [1]: > 100 µM
- inhibition at 20 µM [2]: 15.6%

Structure (SMILES): NS(=O)(=O)c1ccc(-c2nnc(SCC(=O)O)n2-c2ccccc2C(F)(F)F)cc1
- IC50 at 24 h [1]: > 100 µM
- inhibition at 20 µM [2]: 20.7%

Structure (SMILES): NS(=O)(=O)c1ccc(-c2nnc(SCC(=O)O)n2-c2ccccc2Br)cc1
- IC50 at 24 h [1]: > 100 µM
- inhibition at 20 µM [2]: 14%
